Laboratory results reported in article PMC9239272 (mBio, 2022).

Experiments:
P168G SARS2 M^pro = P168G SARS2 M^pro (Severe acute respiratory syndrome coronavirus 2, UniProt P0DTD1, P3431G); format: biochemical, SARS-CoV-2
SARS2 M^pro P168G [1] = format: cell-based, SARS-CoV-2
P168S SARS2 M^pro = P168S SARS2 M^pro (Severe acute respiratory syndrome coronavirus 2, UniProt P0DTD1, P3431S); format: biochemical, SARS-CoV-2
SARS2 M^pro M49D = format: cell-based, SARS-CoV-2
SARS2 M^pro P168G [2] = format: cell-based, SARS-CoV-2; remark: listed apart in the source
SARS2 M^pro P168S [3] = format: cell-based, SARS-CoV-2
SARS2 M^pro P168S [4] = format: cell-based, SARS-CoV-2; remark: listed apart in the source
SARS2 M^pro M49I = format: cell-based, SARS-CoV-2
SARS2 M^pro Q189E = format: cell-based, SARS-CoV-2
SARS2 M^pro Q189N = format: cell-based, SARS-CoV-2
[5] = system: SARS2 H132 (Omicron) M^pro; format: cell-based, SARS-CoV-2

Row | Compound | lower IC50 than wild-type Mpro (P168G SARS2 M^pro) | average increase in luciferase signal over wild type (SARS2 M^pro P168G [1]) | effect of amino acid change on inhibition (SARS2 M^pro P168G [1]) | lower IC50 than wild-type Mpro (P168S SARS2 M^pro) | effect of amino acid change on inhibition (SARS2 M^pro M49D) | eGFP signal localization compared with wild-type construct (SARS2 M^pro P168G [2]) | average increase in luciferase signal over wild type (SARS2 M^pro P168S [3]) | effect of amino acid change on inhibition (SARS2 M^pro P168S [3]) | eGFP signal localization compared with wild-type construct (SARS2 M^pro P168S [4]) | effect of amino acid change on inhibition (SARS2 M^pro M49I) | effect of amino acid change on inhibition (SARS2 M^pro Q189E) | effect of amino acid change on inhibition (SARS2 M^pro Q189N) | decrease of inhibitor efficacy versus wild type (SARS2 M^pro M49D) | decrease of inhibitor efficacy versus wild type (SARS2 M^pro Q189N) | sensitivity of Omicron (P132H) Mpro [5]
1 | CC(C)(C)NC(=O)N[C@H](C(=O)N1C[C@H]2[C@@H]([C@H]1C(=O)NC(CC1CCC1)C(=O)C(N)=O)C2(C)C)C(C)(C)C (stereo partly shown) [boceprevir] | approximately 10 fold | 4 fold | hypersensitivity | approximately 10 fold | slight resistance | increase in membrane-tethered cytosolic eGFP signal | 4 fold | hypersensitivity | increase in membrane-tethered cytosolic eGFP signal | slight resistance | slight resistance | slight resistance |  |  | 
2 | GC376 |  |  | minimal effects |  |  |  |  | minimal effects |  | minimal effects | minimal effects |  | 2.1 fold | 1.8 fold | 
3 | CC(C)(C)[C@H](NC(=O)C(F)(F)F)C(=O)N1C[C@H]2[C@@H]([C@H]1C(=O)N[C@H](C#N)C[C@@H]1CCNC1=O)C2(C)C [nirmatrelvir] |  |  |  |  |  |  |  |  |  |  |  |  |  |  | retains sensitivity
